Test results as given in ChEMBL document CHEMBL5154651, “Substituent effect of benzyl moiety in nitroquinoxaline small molecules upon DNA binding: Cumulative destacking of DNA nucleobases leading to histone eviction” (Eur J Med Chem, 2022).
Active and inactive are the calls of the source. No cut-off for these calls is given here.

Experiments:
Calf thymus DNA [1] = test: Binding affinity to calf thymus DNA assessed as change in free energy by isothermal titration calorimetry; format: nucleic-acid assay; conditions: Bos taurus
DNA [2] = test: Binding affinity to GC-rich pYUB12 plasmid DNA (unknown origin) assessed as induction of DNA unwinding by measuring band shifting at DNA base-pair to compound ratio of 1:1 incubated for 16 hrs by mobility shift assay; format: nucleic-acid assay
HCT-116 [3] = test: Cytotoxicity against human HCT-116 cells assessed as reduction in cell viability incubated for 24 hrs by MTT assay; format: functional, cell-based; conditions: HCT-116, 24 h
Calf thymus DNA [4] = test: Binding affinity to calf thymus DNA by isothermal titration calorimetry; format: nucleic-acid assay; conditions: Bos taurus
HCT-116 [5] = test: Induction of apoptosis in human HCT-116 cells assessed as early apoptotic cells at 0.75 uM incubated for 24 hrs by Annexin V-FITC and propidium iodide staining based flow cytometry analysis (reference value: 0.6%); format: functional
HCT-116 [6] = test: Induction of apoptosis in human HCT-116 cells assessed as early apoptotic cells at 1 uM incubated for 24 hrs by Annexin V-FITC and propidium iodide staining based flow cytometry analysis (reference value: 0.6%); format: functional
DNA [7] = test: Induction of GC-rich pYUB12 plasmid DNA (unknown origin) superstructure formation assessed as height of plasmid DNA at DNA base-pair to compound ratio of 1:1.5 by Atomic Force Microscopic analysis (reference value: 0.26 +/-0.08 nm); format: nucleic-acid assay
DNA [8] = test: Induction of GC-rich pYUB12 plasmid DNA (unknown origin) superstructure formation assessed as uncoiling of DNA with nodes and loops formation and DNA compaction at DNA base-pair to compound ratio of 1:0.5 by Atomic Force Microscopic analysis; format: nucleic-acid assay
HCT-116 [9] = test: Induction of DNA damage in human HCT-116 cells assessed as induction of phosphorylation of gamma-H2AX variant at 0.75 uM incubated for 4 hrs by DAPI staining based immunofluorescence analysis; format: functional, cell-based
GC rich DNA [10] = test: Disruption of native ds-GC12 DNA base (unknown origin) stacking interaction assessed as change in peak intensity at 283 nm at 15 to 60 uM by ellipticity plot based analysis; format: nucleic-acid assay; conditions: dose 15-60 µM
GC rich DNA [11] = test: Disruption of native ds-GC12 DNA (unknown origin) base stacking interaction assessed as deformation of DNA native structure at DNA base-pair to compound ratio of 1:4 by circular dichroism analysis; format: nucleic-acid assay
DNA [12] = test: Induction of GC-rich pYUB12 plasmid DNA (unknown origin) unwinding assessed as DNA structural changes at DNA base-pair to compound ratio of 1:6 incubated for 16 hrs by mobility shift assay; format: nucleic-acid assay
HCT-116 [13] = test: Induction of apoptosis in human HCT-116 cells assessed as increase in uptake of fluorescent nucleotide at 0.5 to 0.75 uM incubated for 4 hrs by TUNEL assay; format: functional, cell-based; conditions: dose 0.5-0.75 µM
Calf thymus DNA [14] = test: Binding affinity to calf thymus DNA assessed as change in enthalpy by isothermal titration calorimetry; format: nucleic-acid assay; conditions: Bos taurus
HCT-116 [15] = test: Induction of DNA double strand breaks in human HCT-116 cells incubated for 24 hrs by neutral comet assay; format: functional, cell-based; conditions: dose 0.5-0.75 µM, DDE = dose-dependent effect
HCT-116 [16] = test: Induction of apoptosis in human HCT-116 cells assessed as necrotic cells at 1 uM incubated for 24 hrs by Annexin V-FITC and propidium iodide staining based flow cytometry analysis (reference value: 3.9%); format: functional
HCT-116 [17] = test: Induction of apoptosis in human HCT-116 cells assessed as late apoptotic cells at 1 uM incubated for 24 hrs by Annexin V-FITC and propidium iodide staining based flow cytometry analysis (reference value: 0.3%); format: functional
DNA [18] = test: Induction of GC-rich pYUB12 plasmid DNA (unknown origin) superstructure formation assessed as DNA compaction with distorted structure at DNA base-pair to compound ratio of 1:1 by Atomic Force Microscopic analysis; format: nucleic-acid assay
GC rich DNA [19] = test: Displacement of Ethidium bromide from native ds-GC12 short DNA (unknown origin) by Stern-Volmer quenching plot analysis; format: nucleic-acid assay
Calf thymus DNA [20] = test: Binding affinity to calf thymus DNA assessed as change in entropy by isothermal titration calorimetry; format: nucleic-acid assay; conditions: Bos taurus
HCT-116 [21] = test: Induction of apoptosis in human HCT-116 cells assessed as viable cells at 1 uM incubated for 24 hrs by Annexin V-FITC and propidium iodide staining based flow cytometry analysis (reference value: 95.3%); format: functional; conditions: read-out: Activity
GC rich DNA [22] = test: Binding affinity to native ds-GC12 DNA assessed as shift in melting temperature at DNA-base pair to compound ratio of 1:1 by differential scanning calorimetry melting based analysis; format: nucleic-acid assay
HCT-116 [23] = test: Induction of apoptosis in human HCT-116 cells assessed as late apoptotic cells at 0.75 uM incubated for 24 hrs by Annexin V-FITC and propidium iodide staining based flow cytometry analysis (reference value: 0.3%); format: functional
HCT-116 [24] = test: Induction of apoptosis in human HCT-116 cells assessed as necrotic cells at 0.5 uM incubated for 24 hrs by Annexin V-FITC and propidium iodide staining based flow cytometry analysis (reference value: 3.9%); format: functional
HCT-116 [25] = test: Induction of apoptosis in human HCT-116 cells assessed as viable cells at 0.5 uM incubated for 24 hrs by Annexin V-FITC and propidium iodide staining based flow cytometry analysis (reference value: 95.3%); format: functional; conditions: read-out: Activity
GC rich DNA [26] = test: Binding affinity to native ds-GC12 DNA assessed as reduction in melting temperature at DNA-base pair to compound ratio of 1:1 by differential scanning calorimetry melting based analysis; format: nucleic-acid assay
[27] = Induction of histone eviction from single assembled nucleosome (unknown origin) assessed as maximum unwrapping of histone from nucleosome at 25 uM incubated for 4 hrs by silver staining based gel electrophoresis assay
GC rich DNA [28] = test: Disruption of native ds-GC12 DNA (unknown origin) base stacking interaction assessed as decrease in positive peak intensity at 283 nm by circular dichroism analysis; format: nucleic-acid assay
GC rich DNA [29] = test: Binding affinity to native ds-GC12 DNA assessed as increase in transition temperature of oligonucleotides at DNA-base pair to compound ratio of 1:4 by differential scanning calorimetry melting based analysis; format: nucleic-acid assay
HCT-116 [30] = test: Induction of apoptosis in human HCT-116 cells assessed as necrotic cells at 0.75 uM incubated for 24 hrs by Annexin V-FITC and propidium iodide staining based flow cytometry analysis (reference value: 3.9%); format: functional
Supercoiled DNA = test: Induction of GC-rich pYUB12 plasmid DNA (unknown origin) unwinding assessed as complete structural change by measuring decrease in band intensity of supercoiled DNA at DNA base-pair to compound ratio of 1:1.5 incubated for 16 hrs by mobility shift assay; format: nucleic-acid assay
DNA [31] = test: Induction of GC-rich pYUB12 plasmid DNA (unknown origin) unwinding assessed as complete structural change with DNA condensation by measuring increase in condensed DNA band intensity at DNA base-pair to compound ratio of 1:1.5 incubated for 16 hrs by mobility shift assay; format: nucleic-acid assay
[32] = Induction of histone eviction from single assembled nucleosome (unknown origin) assessed as reduction in nucleosome band intensity at 60 uM incubated for 4 hrs by silver staining based gel electrophoresis assay
HCT-116 [33] = test: Induction of DNA damage in human HCT-116 cells assessed as induction of phosphorylation of gamma-H2AX variant incubated for 4 hrs by DAPI staining based immunofluorescence analysis; format: functional, cell-based; conditions: HCT-116, 4 h
HCT-116 [34] = test: Induction of apoptosis in human HCT-116 cells assessed as viable cells at 0.75 uM incubated for 24 hrs by Annexin V-FITC and propidium iodide staining based flow cytometry analysis (reference value: 95.3%); format: functional; conditions: read-out: Activity
[35] = Induction of histone eviction from single assembled nucleosome (unknown origin) assessed as unwrapping of histone from nucleosome at 15 to 20 uM incubated for 4 hrs by silver staining based gel electrophoresis assay; conditions: dose 15-20 µM
HCT-116 [36] = test: Induction of apoptosis in human HCT-116 cells assessed as late apoptotic cells at 0.5 uM incubated for 24 hrs by Annexin V-FITC and propidium iodide staining based flow cytometry analysis (reference value: 0.3%); format: functional
HCT-116 [37] = test: Induction of DNA double strand breaks in human HCT-116 cells assessed as increase in tail length at 0.5 to 0.75 uM incubated for 24 hrs by neutral comet assay; format: functional, cell-based; conditions: dose 0.5-0.75 µM
DNA [38] = test: Induction of GC-rich pYUB12 plasmid DNA (unknown origin) superstructure formation assessed as DNA compaction with DNA over-supercoiling at DNA base-pair to compound ratio of 1:1.5 by Atomic Force Microscopic analysis; format: nucleic-acid assay
HCT-116 [39] = test: Induction of apoptosis in human HCT-116 cells assessed as early apoptotic cells at 0.5 uM incubated for 24 hrs by Annexin V-FITC and propidium iodide staining based flow cytometry analysis (reference value: 0.6%); format: functional

CN(C)CCCNc1nc2cc([N+](=O)[O-])ccc2nc1NCc1ccc(I)cc1
deltaG (Calf thymus DNA [1]): -7.87 kcal/mol
Activity (DNA [2]): Active
IC50 (HCT-116 [3]): 440 nM
Ka (Calf thymus DNA [4]): 4.66 10^5/M
Activity (HCT-116 [5]): 76.8%
Activity (HCT-116 [6]): 69.3%
Activity (DNA [7]): 1.48 nm
Activity (DNA [8]): Active
Activity (HCT-116 [9]): Active
Activity (GC rich DNA [10]): Active
Activity (GC rich DNA [11]): Active
Activity (DNA [12]): Active
Activity (HCT-116 [13]): Active
deltaH (Calf thymus DNA [14]): -1.75 kcal/mol
Activity (HCT-116 [15]): Dde
Activity (HCT-116 [16]): 0.7%
Activity (HCT-116 [17]): 27%
Activity (DNA [18]): Active
KSV (GC rich DNA [19]): 5.8 10^4/M
TdeltaS (Calf thymus DNA [20]): 6.12 kcal/mol
viability at 1 µM (HCT-116 [21]): 3%
Tm (GC rich DNA [22]): 49.5 °C
Activity (HCT-116 [23]): 21.1%
Activity (HCT-116 [24]): 0.3%
viability at 0.5 µM (HCT-116 [25]): 2.2%
ΔTm (GC rich DNA [26]): 2.5 °C
Activity [27]: Active
Activity (GC rich DNA [28]): Active
ΔTm (GC rich DNA [29]): 12 °C
Activity (HCT-116 [30]): 0.4%
Activity (Supercoiled DNA): Active
Activity (DNA [31]): Active
Activity [32]: Active
IC50 (HCT-116 [33]): 500 nM
viability at 0.75 µM (HCT-116 [34]): 1.7%
Activity [35]: Active
Activity (HCT-116 [36]): 18.2%
Activity (HCT-116 [37]): Active
Activity (DNA [38]): Active
Activity (HCT-116 [39]): 79.2%
